Experimental data taken from US8911953B2, “TDF-related compounds and analogs thereof, analogs and bioactive fragments” (Thrasos Innovation, Inc., priority 2005, dated 2014).
Positions of bridges follow the written chain, without caps; N, C: chain ends. No end group written: not given here.

How the values were obtained:
[1] = test system: UUO mice; assay: Unilateral ureteral obstruction (UUO) mouse model of chronic renal injury; format: in vivo
Experimental: Schematic of the unilateral urinary obstruction (UUO) mouse model of chronic renal injury. One ureter was ligated on Day 0 (D0) and mice received one of the following treatments: vehicle (control), BMP-7 by intraperitoneal (ip) administration (positive control) or TDFRP by ip, intravenous (iv) or oral (po) administration. Mice were sacrificed on Day 5 (D5) or Day 7 (D7) and the kidneys were evaluated for disease pathology.
Unilateral ureteral obstruction (UUO) is a model resembling human obstructive nephropathy, which represents an inducible chronic model of interstitial fibrosis. UUO is induced by ligation of one ureter, leaving the contra-lateral kidney to serve as a control. As a result of the procedure, mice develop renal tubulointerstitial inflammation, tubulointerstitial fibrosis and tubular atrophy, without hypertension, proteinuria, lipid dysregulation and little glomerular damage contributing to the disease state (Ito et al (2004). J. Urol. February; 171(2 Pt 1): 926-30.; Bhangdia et al. (2003) J. Urol. November; 170(5): 2057-62.; Rawashdeh et al. (2003) Invest Radiol. 2003 March; 38(3): 153-8.; Hruska et al (2000) Am J Physiol Renal Physiol. 2000 July; 79(1): F130-43.). Furthermore, renal fibrosis is associated with alteration of epithelial and fibroblastic cells to myofibroerblasts, along with increased expression of TGF-beta and progressive loss of renal function.

[2] = test system: rats with coronary artery ligation; assay: Left anterior descending (LAD) coronary occlusion model of myocardial injury; format: in vivo, rat; settings: for reduction in AN/AR ratio as compared to PBS-treated animals: Day 7
Experimental: Schematic of the Left Anterior Descending […] (LAD) occlusion model of myocardial injury. The image represents a cross section through the heart of rats showing that treatment with TDFRP or BMP prevents ischemic injury. Left anterior descending arteries were occluded for 20 minutes to induce ischemia. Upon removal of the ligature, blood flow into the heart causes reperfusion injury and apoptosis. After seven days, the heart was stained with Evan's blue dye to differentiate the perfused, unaffected area from the occluded region (area at risk). Four doses of TDFRP (SEQ ID NO:45) were used in the treated animals (pre-occlusion, and 24, 48 and 72 hrs post-occlusion). A) left anterior descending coronary artery ligated to create ischemia, B) infarct areas (IA), C) the unaffected, perfused region. Dyed blue at sacrifice, D) ventricular lumen, E) approximate regional boundary, F) the affected (ischemic) region (AR). Where reperfusion injury leads to apoptosis
The efficacy of TDFRP compound (SEQ ID NO:45) in ameliorating the effects of myocardial ischemia was investigated in the rat after ligation of the coronary artery. […] unmanipulated rats, sorted into two large groups by initial body weight (>300 g pre-surgery) were evaluated. Fourteen rats underwent surgery on week, 12 rats underwent surgery on week 2 and rats were sorted into 3 treatment groups: Group 1, PBS; Group 2, positive control TDF-1; Group 3, test article TDFRP (SEQ ID NO:45) (see Table 13).
Three days prior to surgery, a serum sample was collected from the tail vein of each rat (pre-bleed). On the day of surgery, each rat was administered compound intravenously 2 hr prior to surgery. Surgery was performed sequentially after intubation and ventilation with 0.5% isofluorane anesthetic. Lead II ECG was monitored throughout the surgery. A thoracotomy was performed and the main left coronary artery was occluded for 20 min using a snare technique (FIG. 19). Successful occlusion of the artery was confirmed by ST elevation in lead II ECG within the first 5 minutes of ligation, and by frequent ventricular arrhythmia after 10 minutes of ligation. The snare was released to restore blood flow. The original suture loop was left in place for subsequent re-occlusion on Day 7. After initiation of reperfusion, the chest cavity was closed with 2 layers of suture. Rats were weaned from the ventilator and observed until fully conscious and mobile. Antibiotic (QD) and analgesic (Q8D) were provided. Additional serum samples were collected 6, 24, 72 and 120 hours post occlusion. Additional compound, positive control or vehicle treatments were delivered by intravenous injection in the tail vein at 24, 72 and 120 hours post occlusion.
On Day 7, each rat was anesthetized (ketamine:xyline), the chest cavity re-opened and a terminal blood sample (1 ml) was withdrawn from the abdominal vein. Gross pathology (i.e. inflammation) was noted and graded on a 4 point inflammation scale: 0=no inflammation, 1=slight, 2=moderate, 3=severe and 4=complete pericarditis. The left coronary artery was then re-occluded using the existing stitch and a concentrated solution of Evans Blue dye in saline (20 mg/ml; 0.5 ml/rat) was injected into the heart apex to stain the non-ischemic cardiac tissue blue. The heart was then arrested by injection of a saturated solution of potassium chloride into the right ventricle. The heart was then excised, wrapped in cellophane and stored at −20° C. for 1.5 hour. The cold heart was cut into 10 cross-sectional slices (2 mm/slice) and each section was numbered and incubated separately in triphenyltetrazolium chloride (1% TTC in PBS) for 10 minutes at 37° C. prior to fixing in 4% formaldehyde. Subsequently, each slice was photographed. For each slice, the “area at risk (AR)” and the “area occupied by necrosis (AN)” were measured by morphometry. The ratio of AN to AR is a measure of the degree of damage resulting from the occlusion (FIG. 20).

| Molecule | severity of tubular damage (percent of renal tubular degradation) ([1]; 5-day model, administered orally, ip or iv) | progression of tubulointerstitial fibrosis disease ([1]; 5-day model, oral 5 mg/kg/24 hours or iv 50 mg/kg/24 hours) | progression of tubulointerstitial fibrosis disease ([1]; 7-day model, oral or iv 5 mg/kg/24 hours) | reduction in AN/AR ratio as compared to PBS-treated animals ([2]; 10 mg/kg i.v.) | reduction in inflammation score as compared to PBS-treated animals ([2]; 10 mg/kg i.v., Day 7, 4 point inflammation scale) | inflammation and cytotoxic effects toward cardiomyocytes following myocardial infarction ([2]; myocardial ischemia and reperfusion injury) | degree of cardiac inflammation ([2]; rat, in vivo) | necrotic area to area at risk ratio (IA/AR) ([2]; rat, in vivo) | chronic renal injury ([1]; 5-day model, ip 300 ug/kg/48 hours) | UUO chronic renal injury ([1]; 7-day model, ip 300 ug/kg/48 hours) | reduction in AN/AR ratio as compared to PBS-treated animals ([2]; 160 μg/kg i.v.) |
| --- | --- | --- | --- | --- | --- | --- | --- | --- | --- | --- | --- |
| CYFDDSSNVLCKKYRS (disulfide 1-11 (inferred); not fully specified) [SEQ ID NO:45] | attenuated the severity of tubular damage | attenuated progression | significantly attenuated | 84% | 78% | ameliorate inflammation and cytotoxic effects | reduces | reduces | – | – | – |
| BMP-7: recombinant human mature BMP-7 (BMP-7 or TDF-1), positive control therapy (protein) STGSKQRSQNRSKTPKNQEALRMANVAENSSSDQRQACKKHELYVSFRDLGWQDWIIAPEGYAAYYCEGECAFPLNSYMNATNHAIVQTLVHFINPETVPKPCCAPTQLNAISVLYFDDSSNVILKKYRNMVVRACGCH | – | – | – | – | – | – | – | – | Reversal | Reversal | 7% |
